# Data from article PMC5718519, “Crystal structures of ternary complexes of archaeal B-family DNA polymerases” (PLoS ONE, 2017).
# Target: T1, KOD DNA pol (exo-) (Thermococcus kodakarensis, UniProt P77933, D141A/E143A)
# T1 construct: exonuclease-deficient mature polymerase (inteins absent); codon-optimized, pET24a, E. coli BL21(DE3); heparin and Superdex 75; no tag mentioned
# Assay: X-ray crystal structure of closed ternary complex
# Assay type: binding
# Details: with ddC-terminated primer/template DNA; Mg2+ (site A) and two Mn2+ (sites B, C); polymerase active site; pH 7.5
smiles,measurement,value
"Nc1ncnc2c1ncn2[C@H]1C[C@H](O)[C@@H](COP(=O)(O)OP(=O)(O)OP(=O)(O)O)O1 [dATP, 2’-deoxy-adenosine-5’-triphosphate]",X-ray crystal structure of closed ternary complex,KOD DNA pol binds the incoming dATP in a pocket formed by the palm
